Laboratory results published in patent publication US20150104868A1, “Methods of Maintaining and Improving Biological Cell Function and Activity” (GARGILL INCORPORATED, priority 2012, published 2015).

Test system: CRL 1730 HUVECs
Assay: Microarray transcriptomics of HUVEC (HGERT/HG, HG/NG)
Type: cell-based, human
[1] = Atherosclerosis, ATP binding and metabolism
[2] = Atherosclerosis, Cysteine/gluathione
[3] = Atherosclerosis, Cytokine activity
[4] = Atherosclerosis, Endothelial cell related
[5] = Atherosclerosis, Heat shock protein
[6] = Atherosclerosis, NF-kappaB transcription
[7] = Atherosclerosis, Nitric oxide synthase activity
[8] = Atherosclerosis, Peptidase activity
[9] = Atherosclerosis, Plasminogen activators
[10] = Atherosclerosis, Reactive oxygen species

## OC[C@@H](O)[C@@H](O)CO [ERT, meso-1,2,3,4-tetrahydroxybutane]
[1]
  HGERT/HG ABCB10 (ATP-binding cassette, sub-family B (MDR/TAP), member 10): 0.98 Ω
  HGERT/HG ACTL6A (Actin-like 6A): 0.98 Ω
  HGERT/HG ACTR5 (ARP5 actin-related protein 5 homolog (yeast)): Ψ 1.01
  HGERT/HG ATAD1 (ATPase family, AAA domain containing 1): 0.99 Ω
  HGERT/HG ATAD3B (ATPase family, AAA domain containing 3B): Ψ 1.01
  HGERT/HG ATP2C1 (ATPase, Ca++ transporting, type 2C, member 1): 0.99 Ω
  HGERT/HG ATP5E (ATP synthase, H+ transporting, mitochondrial F1 complex, epsilon subunit): 0.98 Ω
  HGERT/HG ATP5O (ATP synthase, H+ transporting, mitochondrial Fl complex, O subunit): 1.00 Ω
  HGERT/HG ATP13A1 (ATPase type 13A1): Ψ 1.02
  HGERT/HG C3orf26 (Chromosome 3 open reading frame 26): 0.99 Ω
  HGERT/HG CARS (Cysteinyl-tRNA synthetase): 1.00 Ω
  HGERT/HG CSNK1G1 (Casein kinase 1, gamma 1): Ψ 1.02
  HGERT/HG DCAKD (Dephospho-CoA kinase domain containing): Ψ 1.03
  HGERT/HG DDX54 (DEAD (Asp-Glu-Ala-Asp) box, polypeptide 54): 0.99 Ω
  HGERT/HG FASTKD1 (FAST kinase domains 1): 0.99 Ω
  HGERT/HG FASTKD3 (FAST kinase domains 3): 0.99 Ω
  HGERT/HG HLTF (Helicase-like transcription factor): 0.99 Ω
  HGERT/HG HSPE1 (Heat shock 10kDa protein 1 (chaperonin 10)): 0.99 Ω
  HGERT/HG KIF1B (Kinesin family member 1B): Ψ 1.01
  HGERT/HG LIMK1 (LIM domain kinase 1): Ψ 1.01
  HGERT/HG LVN (V-yes-1 Yamaguchi sarcoma viral related oncogene homolog): Ψ 1.02
  HGERT/HG MAP4K3 (Mitogen-activated protein kinase kinase kinase kinase 3): 0.98 Ω
  HGERT/HG MARK2 (MAP/microtubule affinity-regulating kinase 2): Ψ 1.03
  HGERT/HG RP2 (Retinitis pigmentosa 2 (X-linked recessive)): 0.99 Ω
  HGERT/HG RPS6KA2 (Ribosomal protein S6 kinase, 90kDa, polypeptide 2): Ψ 1.01
  HGERT/HG SLK (STE20-like kinase): 0.99 Ω
  HGERT/HG STK39 (Serine threonine kinase 39): 0.98 Ω
  HGERT/HG SUCLA2 (Succinate-CoA ligase, ADP-forming, beta subunit): 0.99 Ω
  HGERT/HG TRIT1 (TRNA isopentenyltransferase 1): 0.98 Ω
  HGERT/HG VPS4B (Vacuolar protein sorting 4 homolog B (S. cerevisiae)): 0.99 Ω
  HGERT/HG YME1L1 (YME1-like 1 (S. cerevisiae)): 1.00 Ω
Atherosclerosis, Actin binding
  HGERT/HG CORO1A (Coronin, actin binding protein, 1A): 0.94 Ω
  HGERT/HG PLEC1 (Plectin): Ψ 1.03
[2]
  HGERT/HG AHCYL1 (Adenosylhomocysteinase-like 1): Ψ 1.01
  HGERT/HG ATIC (5-aminoimidazole-4-carboxamide ribonucleotide formyltransferase/IMP cyclohydrolase): 0.99 Ω
  HGERT/HG ESD (Esterase D): 0.99 Ω
[3]
  HGERT/HG BMP6 (Bone morphogenetic protein 6): Ψ 1.01
  HGERT/HG IL13RA1 (Interleukin 13 receptor, alpha 1): Ψ 1.02
  HGERT/HG IL17D (Interleukin 17D): 0.98 Ω
[4]
  HGERT/HG ENG (Endoglin): Ψ 1.01
  HGERT/HG FOXC1 (Forkhead box C1): Ψ 1.01
  HGERT/HG GPR124 (G protein-coupled receptor 124): Ψ 1.02
  HGERT/HG HIG2 (Chromosome 7 open reading frame 68): Ψ 1.01
  HGERT/HG JUP (Junction plakoglobin): Ψ 1.01
  HGERT/HG KRIT1 (KRIT1, ankyrin repeat containing): 0.99 Ω
  HGERT/HG NOTCH1 (Notch 1): Ψ 1.02
Atherosclerosis, Endothelial cell-cell adhesion
  HGERT/HG JUP (Junction plakoglobin): Ψ 1.01
[5]
  HGERT/HG DNAJC8 (DnaJ (Hsp40) homolog, subfamily C, member 8): 0.99 Ω
  HGERT/HG DNAJC11 (DnaJ (Hsp40) homolog, subfamily C, member 11): Ψ 1.01
[6]
  HGERT/HG COMMD7 (COMM domain containing 7): 0.99 Ω
  HGERT/HG NDFIP2 (Nedd4 family interacting protein 2): 0.99 Ω
  HGERT/HG PTPLAD1 (Protein tyrosine phosphatase-like A domain containing 1): Ψ 1.01
  HGERT/HG TP53BP2 (Tumor protein p53 binding protein, 2): Ψ 1.01
[7]
  HGERT/HG ACVR2A (Activin A receptor, type IIA): 0.99 Ω
  HGERT/HG ENG (Endoglin): Ψ 1.01
  HGERT/HG HIG2 (Chromosome 7 open reading frame 68): Ψ 1.01
Atherosclerosis, Osteoclast differentiation
  HGERT/HG OSTM1 (Osteopetrosis associated transmembrane protein 1): 0.99 Ω
[8]
  HGERT/HG ATXN3 (Ataxin 3): 0.99 Ω
  HGERT/HG OTUD5 (OTU domain containing 5): Ψ 1.01
  HGERT/HG SENP3 (SUMO1/sentrin/SMT3 specific peptidase 3): Ψ 1.01
  HGERT/HG WFDC12 (WAP four-disulfide core domain 12): 0.96 Ω
Atherosclerosis, Phospholipid scramblase
  HGERT/HG PLSCR4 (Phospholipid scramblase 4): 0.99 Ω
[9]
  HGERT/HG BRD2 (Bromodomain containing 2): Ψ 1.02
  HGERT/HG RHOJ (Ras homolog gene family, member J): Ψ 1.02
[10]
  HGERT/HG COX8A (Cytochrome c oxidase subunit VIIIA (ubiquitous)): 0.99 Ω
  HGERT/HG JUP (Junction plakoglobin): Ψ 1.01
  HGERT/HG MPHOSPH6 (M-phase phosphoprotein 6): 0.99 Ω
  HGERT/HG SDHD (Succinate dehydrogenase complex, subunit D, integral membrane protein): 0.98 Ω
  HGERT/HG SMOX (Spermine oxidase): 0.99 Ω
  HGERT/HG SOS1 (Son of sevenless homolog 1 (Drosophila)): Ψ 1.06
  HGERT/HG TCF12 (Transcription factor 12): 0.99 Ω
  HGERT/HG TGM2 (Transglutaminase 2 (C polypeptide, protein-glutamine-gamma-glutamyltransferase)): Ψ 1.01
Atherosclerosis, Steroid hormone receptor activity
  HGERT/HG PGRMC2 (Progesterone receptor membrane component 2): 0.98 Ω
Breast cancer, ATP metabolism
  HGERT/HG ABCB10 (ATP-binding cassette, sub-family B (MDR/TAP), member 10): 0.98 Ω
  HGERT/HG ACTL6A (Actin like 6A): 0.98 Ω
  HGERT/HG ACTR5 (ARP5 actin-related protein 5 homolog (yeast)): Ψ 1.01
  HGERT/HG ATAD1 (ATPase family, AAA domain containing 1): 0.99 Ω
  HGERT/HG ATAD38 (ATPase family, AAA domain containing 38): Ψ 1.01
  HGERT/HG ATP2C1 (ATPase, Ca++ transporting, type 2C, member 1): 0.99 Ω
  HGERT/HG ATP5E (ATP synthase, H+ transporting, mitochondrial F1 complex, epsilon subunit): 0.99 Ω
  HGERT/HG ATP5O (ATP synthase, H+ transporting, mitochondrial F1 complex, O subunite): Ψ 1.00
  HGERT/HG ATP13A1 (ATPase type 13A1): Ψ 1.02
  HGERT/HG C3orf26 (Chromosome 3 open reading frame 26): 0.99 Ω
  HGERT/HG CARS (Cysteinyl-tRNA synthetase): 1.00 Ω
  HGERT/HG CSNK1G1 (Casein kinase 1, gamma 1): Ψ 1.02
  HGERT/HG DCAKO (Dephospho-CoA kinase domain containing): Ψ 1.03
  HGERT/HG DDX54 (DEAD (Asp-Glu-Ala-Asp) box, polypeptide 54): 0.99 Ω
  HGERT/HG FASTDK1 (FAST kinase domains 1): 0.99 Ω
  HGERT/HG FASTKD3 (FAST kinase domains 1): 0.99 Ω
  HGERT/HG HLTF (Helicase-like transcription factor): 0.99 Ω
  HGERT/HG HSPE1 (Heat shock 10kDa protein 1 (chaperonin 10)): 0.99 Ω
  HGERT/HG KF1B (Kinesin family member 1B): Ψ 1.01
  HGERT/HG LIMK1 (LIM domain kinase 1): Ψ 1.01
  HGERT/HG LYN (V-yes-1 Yamaguchi sarcoma viral related oncogene homolog): Ψ 1.02
  HGERT/HG MAP4K3 (Mitogen-activated protein kinase kinase kinase kinase 3): 0.98 Ω
  HGERT/HG RP2 (Retinitis pigmentosa 2 (X-linked recessive)): 0.98 Ω
  HGERT/HG SLK (STE20-like kinase): 0.99 Ω
  HGERT/HG STK39 (Serine threonine kinase 39): 0.98 Ω
  HGERT/HG SUCLA2 (Succinate-CoA ligase, ADP-forming, beta subunit): 0.99 Ω
